Assay results: ChEMBL document CHEMBL3885861, “Open TG-GATES”

Species: Rattus norvegicus
Assay: Open TG-GATES - Regimen: Single
Format: toxicity, organism-based, Sprague-Dawley
Parameters: regimen Single, gender Male, age 6 weeks
Settings: in vivo, po, 300 mg/kg, route gavage, dose level High; for APTT / Bas / Eos / Fbg / Hb / Ht / Lym / MCH / MCHC / MCV / Mono / Neu / PT / Plat / RBC / Ret / WBC: tissue Blood; for KIDNEY_L / KIDNEY_R / KIDNEY_TOTAL: tissue Kidney; for LIVER: tissue Liver; for A/G / ALP / ALT / AST / BUN / CRE / Ca / Cl / DBIL / GLC / IP / K / LDH / Na / PL / RALB / TBIL / TC / TG / TP / gamma-GTP: tissue Plasma

Compound: Cc1ccc(C)c(OCCCC(C)(C)C(=O)O)c1 [GEMFIBROZIL]
- TERMINAL_BW (3 h): 224.5 g
- APTT (3 h): 15.3 s
- Bas (3 h): 0%
- Eos (3 h): 0.4%
- Fbg (3 h): 299.8 mg/dL
- Hb (3 h): 13.9 g/dL
- Ht (3 h): 40.1%
- Lym (3 h): 74%
- MCH (3 h): 22.2 pg
- MCHC (3 h): 34.6%
- MCV (3 h): 64.1 fL
- Mono (3 h): 3.2%
- Neu (3 h): 20.8%
- PT (3 h): 12.2 s
- Plat (3 h): 122 x10_4/uL
- RBC (3 h): 625.6 x10_4/ul
- Ret (3 h): 7.4%
- WBC (3 h): 74.7 x10_2/uL
- KIDNEY_L (3 h): 0.9 g
- KIDNEY_R (3 h): 1 g
- KIDNEY_TOTAL (3 h): 1.9 g
- LIVER (3 h): 9.5 g
- A/G (3 h): 0.8
- ALP (3 h): 1942.2 IU/L
- ALT (3 h): 47 IU/L
- AST (3 h): 75.6 IU/L
- BUN (3 h): 13 mg/dL
- CRE (3 h): 0.2 mg/dL
- Ca (3 h): 11.4 mg/dL
- Cl (3 h): 104.6 meq/L
- DBIL (3 h): 0.2 mg/dL
- GLC (3 h): 168 mg/dL
- IP (3 h): 9.9 mg/dL
- K (3 h): 4.4 meq/L
- LDH (3 h): 75.6 IU/L
- Na (3 h): 141.2 meq/L
- PL (3 h): 188.8 mg/dL
- RALB (3 h): 2.7 g/dL
- TBIL (3 h): 0.082 mg/dL
- TC (3 h): 83.6 mg/dL
- TG (3 h): 320 mg/dL
- TP (3 h): 5.8 g/dL
- gamma-GTP (3 h): 1.2 IU/L
- TERMINAL_BW (6 h): 222.4 g
- APTT (6 h): 14.3 s
- Bas (6 h): 0%
- Eos (6 h): 0.6%
- Fbg (6 h): 305.6 mg/dL
- Hb (6 h): 13.7 g/dL
- Ht (6 h): 40%
- Lym (6 h): 77.4%
- MCH (6 h): 21 pg
- MCHC (6 h): 34.2%
- MCV (6 h): 61.3 fL
- Mono (6 h): 3.4%
- Neu (6 h): 17.8%
- PT (6 h): 11.8 s
- Plat (6 h): 122.9 x10_4/uL
- RBC (6 h): 651.8 x10_4/ul
- Ret (6 h): 6.7%
- WBC (6 h): 77.1 x10_2/uL
- KIDNEY_L (6 h): 0.9 g
- KIDNEY_R (6 h): 0.9 g
- KIDNEY_TOTAL (6 h): 1.8 g
- LIVER (6 h): 8.5 g
- A/G (6 h): 0.9
- ALP (6 h): 1762.4 IU/L
- ALT (6 h): 44.2 IU/L
- AST (6 h): 76.2 IU/L
- BUN (6 h): 9.8 mg/dL
- CRE (6 h): 0.2 mg/dL
- Ca (6 h): 11.4 mg/dL
- Cl (6 h): 106.4 meq/L
- DBIL (6 h): 0.1 mg/dL
- GLC (6 h): 171.2 mg/dL
- IP (6 h): 10.8 mg/dL
- K (6 h): 4.3 meq/L
- LDH (6 h): 61.6 IU/L
- Na (6 h): 142.6 meq/L
- PL (6 h): 171.2 mg/dL
- RALB (6 h): 2.7 g/dL
- TBIL (6 h): 0.086 mg/dL
- TC (6 h): 88.2 mg/dL
- TG (6 h): 121 mg/dL
- TP (6 h): 5.5 g/dL
- gamma-GTP (6 h): 1.2 IU/L
- TERMINAL_BW (9 h): 224.1 g
- APTT (9 h): 15 s
- Bas (9 h): 0%
- Eos (9 h): 0.6%
- Fbg (9 h): 306.4 mg/dL
- Hb (9 h): 13.7 g/dL
- Ht (9 h): 40.2%
- Lym (9 h): 75.2%
- MCH (9 h): 21.8 pg
- MCHC (9 h): 34.1%
- MCV (9 h): 64.1 fL
- Mono (9 h): 2.4%
- Neu (9 h): 21%
- PT (9 h): 11.9 s
- Plat (9 h): 117.7 x10_4/uL
- RBC (9 h): 628 x10_4/ul
- Ret (9 h): 7.8%
- WBC (9 h): 52.7 x10_2/uL
- KIDNEY_L (9 h): 1 g
- KIDNEY_R (9 h): 0.9 g
- KIDNEY_TOTAL (9 h): 1.9 g
- LIVER (9 h): 8.3 g
- A/G (9 h): 0.9
- ALP (9 h): 1746.4 IU/L
- ALT (9 h): 38.8 IU/L
- AST (9 h): 68 IU/L
- BUN (9 h): 10.6 mg/dL
- CRE (9 h): 0.2 mg/dL
- Ca (9 h): 11.3 mg/dL
- Cl (9 h): 106.2 meq/L
- DBIL (9 h): 0.1 mg/dL
- GLC (9 h): 177.6 mg/dL
- IP (9 h): 11.8 mg/dL
- K (9 h): 4.3 meq/L
- LDH (9 h): 59.4 IU/L
- Na (9 h): 143.2 meq/L
- PL (9 h): 143.8 mg/dL
- RALB (9 h): 2.7 g/dL
- TBIL (9 h): 0.076 mg/dL
- TC (9 h): 73.2 mg/dL
- TG (9 h): 59.6 mg/dL
- TP (9 h): 5.7 g/dL
- gamma-GTP (9 h): 1.4 IU/L
- TERMINAL_BW (24 h): 224.7 g
- APTT (24 h): 14.7 s
- Bas (24 h): 0%
- Eos (24 h): 0.8%
- Fbg (24 h): 320.4 mg/dL
- Hb (24 h): 13.6 g/dL
- Ht (24 h): 39.5%
- Lym (24 h): 80%
- MCH (24 h): 21.5 pg
- MCHC (24 h): 34.4%
- MCV (24 h): 62.6 fL
- Mono (24 h): 3.4%
- Neu (24 h): 15.2%
- PT (24 h): 12.2 s
- Plat (24 h): 102.6 x10_4/uL
- RBC (24 h): 631.8 x10_4/ul
- Ret (24 h): 6.3%
- WBC (24 h): 73.6 x10_2/uL
- KIDNEY_L (24 h): 1 g
- KIDNEY_R (24 h): 1 g
- KIDNEY_TOTAL (24 h): 2 g
- LIVER (24 h): 10.9 g
- A/G (24 h): 1
- ALP (24 h): 2167.4 IU/L
- ALT (24 h): 46.4 IU/L
- AST (24 h): 74 IU/L
- BUN (24 h): 12.8 mg/dL
- CRE (24 h): 0.2 mg/dL
- Ca (24 h): 11.3 mg/dL
- Cl (24 h): 105.6 meq/L
- DBIL (24 h): 0.1 mg/dL
- GLC (24 h): 189 mg/dL
- IP (24 h): 8 mg/dL
- K (24 h): 4 meq/L
- LDH (24 h): 74.8 IU/L
- Na (24 h): 141.8 meq/L
- PL (24 h): 124 mg/dL
- RALB (24 h): 2.7 g/dL
- TBIL (24 h): 0.06 mg/dL
- TC (24 h): 63.6 mg/dL
- TG (24 h): 67.2 mg/dL
- TP (24 h): 5.5 g/dL
- gamma-GTP (24 h): 1.2 IU/L
